In PMC9896555, “Cyclic Acetals as Novel Long-Lasting Mosquito Repellents” (Journal of Agricultural and Food Chemistry, 2023):

test system: Aedes albopictus; test: Effective dose / protection efficacy, human-bait technique; format: in vivo; details: 0.081 µg/cm2
Method: The repellence of DEET, Icaridin (both supplied by Istituto Biochimico VEBI s.r.l.), acetals, and the synthesized hydroxyacetals was evaluated againstAedes albopictususing the human-bait technique (to simulate the condition of human skin on which repellents will be applied).[22]A. albopictuswas reared and tested at 26 ± 2 °C, ≥60 ± 10% relative humidity (RH), and at 14:10 h light/dark photoperiod, within Plexiglas cylindrical laboratory cages (35 cm diameter, 60 cm length) with one end closed by a net. During the tests, cages contained ≈150 nulliparous, 4–7 day-old, nonblood-fed females. For each compound to be tested, up to six volunteers participated in the trial.
The study was approved by the Regional Ethics Committee for Clinical Trials of Tuscany Region with the registered number 20383. Volunteers agreed to take part in the experiments following informed consent; only volunteers non-allergic to mosquito bites participated in the trials. On the day of the bioassay, they had no contact with lotions, perfumes, oils, or perfumed soaps. They wore latex surgical gloves, in which a dorsal square area of 30 cm^2 was cut open. Mosquito-exposed skin was treated with 50 μL of ethanol, as the negative hand control. The other hand was treated with 50 μL of the tested compounds in ethanol solution (dosages corresponding to 0.081, 0.17, 0.33, 0.5, 0.83, 1.7, 8.3, 16.7, and 83.3 μg/cm^2). Both hands were presented in the same test cage. The number of probing mosquitoes in a 3 min exposure period was recorded. During each test, the control and the treated hand were presented interchanged to verify the mosquitoes’ readiness to bite. Trials were considered valid only if at least 30 mosquitoes performed probing behavior on the control hand before each repellent dosage was tested. The protection efficacy (PE %) obtained from all replicates was calculated, according to the WHO guidelines[31] using this formula [drawing 1]
To evaluate the protection efficacy, volunteers applied increasing doses of the compounds to the skin on the back of their hands (30 cm^2, while the rest was covered with a rubber glove) and counted the number of mosquitoes attempting to bite; the solvent only was used on the control hand. The protection (percentage of repelled mosquitoes) was calculated as reported in the Material and Methods section.

| SMILES | Protection efficacy PE% |
| --- | --- |
| CCCCCCCC1OCC(CO)O1 (mixture of isomers) [9a] | 0% |
| CCCCCC1(CCCCC)OCC(CO)O1 (racemic) [23a] | 33.33% |
| CCCCCCCCCC1OCC(CO)O1 (mixture of isomers) [18a] | 22.98% |

same assay, conditions: 0.17 µg/cm2

| SMILES | Protection efficacy PE% |
| --- | --- |
| CCCCCCCC1OCC(CO)O1 (mixture of isomers) [9a] | 33.33% |
| CCCCCC1(CCCCC)OCC(CO)O1 (racemic) [23a] | 54.16% |
| CCCCCCCCCC1OCC(CO)O1 (mixture of isomers) [18a] | 41.74% |

same assay, conditions: 0.33 µg/cm2

| SMILES | Protection efficacy PE% |
| --- | --- |
| CCCCCCCC1OCC(CO)O1 (mixture of isomers) [9a] | 72.85% |
| CCCCCC1(CCCCC)OCC(CO)O1 (racemic) [23a] | 97.01% |
| CCCCCCCCCC1OCC(CO)O1 (mixture of isomers) [18a] | 40.93% |

same assay, conditions: 0.5 µg/cm2

| SMILES | Protection efficacy PE% |
| --- | --- |
| CCCCCCCC1OCC(CO)O1 (mixture of isomers) [9a] | 74.69% |
| CCCCCC1(CCCCC)OCC(CO)O1 (racemic) [23a] | 76.81% |
| CCCCCCCCCC1OCC(CO)O1 (mixture of isomers) [18a] | 77.98% |

same assay, conditions: 0.83 µg/cm2

| SMILES | Protection efficacy PE% |
| --- | --- |
| CCCCCCCC1OCC(CO)O1 (mixture of isomers) [9a] | 82.72% |
| CCCCCC1(CCCCC)OCC(CO)O1 (racemic) [23a] | 76.67% |
| CCCCCCCCCC1OCC(CO)O1 (mixture of isomers) [18a] | 69.25% |

same assay, conditions: 1.7 µg/cm2

| SMILES | Protection efficacy PE% |
| --- | --- |
| CCCCCCCC1OCC(CO)O1 (mixture of isomers) [9a] | 90.12% |
| CCCCCC1(CCCCC)OCC(CO)O1 (racemic) [23a] | 93.75% |
| CCCCCCCCCC1OCC(CO)O1 (mixture of isomers) [18a] | 87.67% |

same assay, conditions: 8.3 µg/cm2

| SMILES | Protection efficacy PE% |
| --- | --- |
| CCCCCCCC1OCC(CO)O1 (mixture of isomers) [9a] | 100% |
| CCCCCC1(CCCCC)OCC(CO)O1 (racemic) [23a] | 88.23% |
| CCCCCCCCCC1OCC(CO)O1 (mixture of isomers) [18a] | 95.83% |

same assay, conditions: 16.7 µg/cm2

| SMILES | Protection efficacy PE% |
| --- | --- |
| CCCCCCCC1OCC(CO)O1 (mixture of isomers) [9a] | 100% |
| CCCCCC1(CCCCC)OCC(CO)O1 (racemic) [23a] | 98.04% |
| CCCCCCCCCC1OCC(CO)O1 (mixture of isomers) [18a] | 100% |

same assay, conditions: 83.3 µg/cm2

| SMILES | Protection efficacy PE% |
| --- | --- |
| CCCCCCCC1OCC(CO)O1 (mixture of isomers) [9a] | 100% |
| CCCCCC1(CCCCC)OCC(CO)O1 (racemic) [23a] | 100% |
| CCCCCCCCCC1OCC(CO)O1 (mixture of isomers) [18a] | 100% |

same assay, conditions: Table S1

| SMILES | 100% PE |
| --- | --- |
| CCCCCCCC1OCC(CO)O1 (mixture of isomers) [9a] | 8.3 µg/cm2 |
| CCCCCC1(CCCCC)OCC(CO)O1 (racemic) [23a] | 83.3 µg/cm2 |

same assay, conditions: applied on skin of volunteers, 3 min exposure

| SMILES | Protection efficacy (dose to obtain complete protection (100%) from bite attempts) |
| --- | --- |
| CCCCCCCC1OCC(CO)O1 (mixture of isomers) [9a] | 8.3 μg/cm^2 |
| CCCCCCCCCC1OCC(CO)O1 (mixture of isomers) [18a] | 16.7 μg/cm^2 |

test system: Aedes albopictus; test: Protection time at 0.17 mg/cm2, human-bait technique; format: in vivo; details: 0.17mg/cm2, 0 min
Method: To evaluate the protection time of derivatives, the PE % was measured with 100 μL of a 5% ethanol solution, corresponding to 0.17 mg/cm^2 of exposed skin, under the same laboratory conditions. Mosquito-exposed skin was treated with 100 μL of ethanol, as the negative hand control. For each volunteer (up to 8), the test was performed every hour, up to 8 h from the application. The protection time of DEET and Icaridin was measured under the same conditions. Since these trials were run in parallel with those aimed to profile the cytotoxicity of the compounds (paragraph 2.6), we interrupted the experiments for those compounds showing to have higher cytotoxicity than Icaridin and DEET as soon as the results were available. For this reason, the number of volunteers differs among the compounds.
The average time until protection which was higher than 95% protection time was considered for each compound. Moreover, for the compounds tested on at least three volunteers, the complete (100%) protection time was also estimated (SPSS 28.01.0) using the Kaplan–Meier survivor function procedure.[22]

| SMILES | Protection time PE% |
| --- | --- |
| CCCCCCCC1OCC(CO)O1 (mixture of isomers) [9a] | 100% |
| CCCCCC1(CCCCC)OCC(CO)O1 (racemic) [23a] | 100% |
| CCCCCCCCCC1OCC(CO)O1 (mixture of isomers) [18a] | 100% |

same assay, conditions: 0.17mg/cm2, 1 h

| SMILES | Protection time PE% |
| --- | --- |
| CCCCCCCC1OCC(CO)O1 (mixture of isomers) [9a] | 99.77% |
| CCCCCC1(CCCCC)OCC(CO)O1 (racemic) [23a] | 99.62% |
| CCCCCCCCCC1OCC(CO)O1 (mixture of isomers) [18a] | 97.63% |

same assay, conditions: 0.17mg/cm2, 2 h

| SMILES | Protection time PE% |
| --- | --- |
| CCCCCCCC1OCC(CO)O1 (mixture of isomers) [9a] | 99.42% |
| CCCCCC1(CCCCC)OCC(CO)O1 (racemic) [23a] | 98.79% |
| CCCCCCCCCC1OCC(CO)O1 (mixture of isomers) [18a] | 100% |

same assay, conditions: 0.17mg/cm2, 3 h

| SMILES | Protection time PE% |
| --- | --- |
| CCCCCCCC1OCC(CO)O1 (mixture of isomers) [9a] | 100% |
| CCCCCC1(CCCCC)OCC(CO)O1 (racemic) [23a] | 97.92% |
| CCCCCCCCCC1OCC(CO)O1 (mixture of isomers) [18a] | 98.31% |

same assay, conditions: 0.17mg/cm2, 4 h

| SMILES | Protection time PE% |
| --- | --- |
| CCCCCCCC1OCC(CO)O1 (mixture of isomers) [9a] | 100% |
| CCCCCC1(CCCCC)OCC(CO)O1 (racemic) [23a] | 98.99% |
| CCCCCCCCCC1OCC(CO)O1 (mixture of isomers) [18a] | 99.28% |

same assay, conditions: 0.17mg/cm2, 5 h

| SMILES | Protection time PE% |
| --- | --- |
| CCCCCCCC1OCC(CO)O1 (mixture of isomers) [9a] | 99.61% |
| CCCCCC1(CCCCC)OCC(CO)O1 (racemic) [23a] | 88.68% |
| CCCCCCCCCC1OCC(CO)O1 (mixture of isomers) [18a] | 99.23% |

same assay, conditions: 0.17mg/cm2, 6 h

| SMILES | Protection time PE% |
| --- | --- |
| CCCCCCCC1OCC(CO)O1 (mixture of isomers) [9a] | 95.75% |
| CCCCCC1(CCCCC)OCC(CO)O1 (racemic) [23a] | 97.92% |
| CCCCCCCCCC1OCC(CO)O1 (mixture of isomers) [18a] | 97.68% |

same assay, conditions: 0.17mg/cm2, 7 h

| SMILES | Protection time PE% |
| --- | --- |
| CCCCCCCC1OCC(CO)O1 (mixture of isomers) [9a] | 95.88% |
| CCCCCC1(CCCCC)OCC(CO)O1 (racemic) [23a] | 92.53% |
| CCCCCCCCCC1OCC(CO)O1 (mixture of isomers) [18a] | 92.86% |

same assay, conditions: 0.17mg/cm2, 8 h

| SMILES | Protection time PE% |
| --- | --- |
| CCCCCCCC1OCC(CO)O1 (mixture of isomers) [9a] | 94.12% |
| CCCCCC1(CCCCC)OCC(CO)O1 (racemic) [23a] | 92.80% |
| CCCCCCCCCC1OCC(CO)O1 (mixture of isomers) [18a] | 95.18% |

same assay, conditions: at the dose of 0.17mg/cm2

| SMILES | Average PT >95% (% coefficient of variation) |
| --- | --- |
| CCCCCCCC1OCC(CO)O1 (mixture of isomers) [9a] | 420 (4.5) min |
| CCCCCC1(CCCCC)OCC(CO)O1 (racemic) [23a] | 360 (4.8) min |
| CCCCCCCCCC1OCC(CO)O1 (mixture of isomers) [18a] | 420 (2.1) min |

same assay, conditions: at the dose of 0.17mg/cm2; Kaplan–Meier estimate

| SMILES | Estimated 100% PT (complete protection time, mean±SE) |
| --- | --- |
| CCCCCCCC1OCC(CO)O1 (mixture of isomers) [9a] | 307 ± 53 min |
| CCCCCC1(CCCCC)OCC(CO)O1 (racemic) [23a] | 240 ± 65 min |
| CCCCCCCCCC1OCC(CO)O1 (mixture of isomers) [18a] | 190 ± 50 min |

same assay, conditions: dose of 0.17 mg/cm^2; tests ended after 8 h

| SMILES | Protection time (95% protection) |
| --- | --- |
| CCCCCCCC1OCC(CO)O1 (mixture of isomers) [9a] | 7 h |
